Reference: ChEMBL document CHEMBL3603836, “Hybrid pyrimidine alkynyls inhibit the clinically resistance related Bcr-Abl(T315I) mutant” (Bioorg Med Chem Lett, 2015)

Tests used:
[1] = system: K562; assay: cells; details: Homo sapiens, K562, 72 h
Description: Antiproliferative activity against human K562 cells expressing wild type Bcr-Abl after 72 hrs by CCK-8 assay

[2] = target: Bcr/Abl fusion protein (Homo sapiens, UniProt P00519); assay type: protein assay
Description: Inhibition of wild type Bcr-Abl (unknown origin) using Tyr2 peptide substrate after 2 hrs by FRET-based Z'-lyte assay

[3] = target: Bcr/Abl fusion protein (Homo sapiens, UniProt P00519, T315I); assay type: protein assay
[4] = Antiproliferative activity against mouse BA/F3 cells expressing wild type Bcr-Abl after 72 hrs by CCK-8 assay; assay type: functional, cell-based; details: BaF3, 72 h
[5] = cells; details: Mus musculus, BaF3, 72 h
[6] = Cmax in Sprague-Dawley rat at 25 mg/kg, po; assay type: ADME, organism-based; set-up: dose 25 mg/kg, route oral; details: in vivo
[7] = Cmax in Sprague-Dawley rat at 10 mg/kg, iv; assay type: ADME, organism-based; set-up: dose 10 mg/kg, route intravenous; details: in vivo
[8] = Tmax in Sprague-Dawley rat at 25 mg/kg, po; assay type: ADME, organism-based; details: in vivo
[9] = system: Rattus norvegicus; assay: AUC (0 to infinity) in Sprague-Dawley rat at 10 mg/kg, iv; assay type: ADME, organism-based; set-up: dose 10 mg/kg, time infinity, route intravenous; details: in vivo
[10] = system: Rattus norvegicus; assay: AUC (0 to infinity) in Sprague-Dawley rat at 25 mg/kg, po; assay type: ADME, organism-based; set-up: dose 25 mg/kg, time infinity, route oral; details: in vivo
[11] = Half life in Sprague-Dawley rat at 10 mg/kg, iv; assay type: ADME, organism-based; details: in vivo
[12] = Tmax in Sprague-Dawley rat at 10 mg/kg, iv; assay type: ADME, organism-based; details: in vivo
[13] = Half life in Sprague-Dawley rat at 25 mg/kg, po; assay type: ADME, organism-based; details: in vivo

Structure (SMILES)	IC50 [1]	IC50 [2]	IC50 [3]	IC50 [5]	Cmax [6]	Cmax [7]	Tmax [8]	AUC [9]	AUC [10]	half-life [11]	Tmax [12]	half-life [13]	IC50 [4]
Cc1cn(-c2cc(NC(=O)c3ccc(C)c(C#Cc4cnc(N5CCOCC5)nc4)c3)cc(C(F)(F)F)c2)cn1	355 nM	300 nM	> 1000 nM	8430 nM									292 nM
Cc1cn(-c2cc(NC(=O)c3ccc(C)c(C#Cc4cnc(NC5CCCCC5)nc4)c3)cc(C(F)(F)F)c2)cn1	30 nM	93 nM	458 nM	2710 nM									49 nM
Cc1cn(-c2cc(NC(=O)c3ccc(C)c(C#Cc4cnc(N5CCCCC5)nc4)c3)cc(C(F)(F)F)c2)cn1	640 nM	904 nM	> 1000 nM	> 10000 nM									683 nM
Cc1cn(-c2cc(NC(=O)c3ccc(C)c(C#Cc4cnc(N5CCCC5)nc4)c3)cc(C(F)(F)F)c2)cn1	> 925 nM	> 1000 nM	> 1000 nM	> 10000 nM									> 1000 nM
Cc1cn(-c2cc(NC(=O)c3ccc(C)c(C#Cc4cnc(NC(C)C)nc4)c3)cc(C(F)(F)F)c2)cn1	27 nM	125 nM	187 nM	1160 nM									23 nM
Cc1cn(-c2cc(NC(=O)c3ccc(C)c(C#Cc4cnc(NC(C)(C)C)nc4)c3)cc(C(F)(F)F)c2)cn1	23 nM	28 nM	24 nM	135 nM									38 nM
Cc1nc(Nc2ncc(C(=O)Nc3c(C)cccc3Cl)s2)cc(N2CCN(CCO)CC2)n1 [DASATINIB]	1 nM			> 1000 nM									
Cc1ccc(NC(=O)c2ccc(CN3CCN(C)CC3)cc2)cc1Nc1nccc(-c2cccnc2)n1 [IMATINIB]	280 nM			> 1000 nM									

More lines, main results first:

IC50 [1]	IC50 [2]	IC50 [3]	IC50 [5]	Cmax [6]	Cmax [7]	Tmax [8]	AUC [9]	AUC [10]	half-life [11]	Tmax [12]	half-life [13]	Structure (SMILES)	IC50 [4]
1 nM	8 nM	7 nM	78 nM									Cc1cn(-c2cc(NC(=O)c3ccc(C)c(C#Cc4cnc(N)nc4)c3)cc(C(F)(F)F)c2)cn1	2 nM
13 nM	18 nM	19 nM	1080 nM									Cc1cn(-c2cc(NC(=O)c3ccc(C)c(C#Cc4cnc(NCCO)nc4)c3)cc(C(F)(F)F)c2)cn1	17 nM
22 nM												Cc1cn(-c2cc(NC(=O)c3ccc(C)c(Nc4nccc(-c5cccnc5)n4)c3)cc(C(F)(F)F)c2)cn1 [NILOTINIB]	
6 nM	30 nM	19 nM	113 nM									CCNc1ncc(C#Cc2cc(C(=O)Nc3cc(-n4cnc(C)c4)cc(C(F)(F)F)c3)ccc2C)cn1	8 nM
111 nM	238 nM	161 nM	2400 nM									Cc1cn(-c2cc(NC(=O)c3ccc(C)c(C#Cc4cnc(Nc5ccccc5)nc4)c3)cc(C(F)(F)F)c2)cn1	208 nM
7 nM	10 nM	6 nM	85 nM	3090 ng/mL	11000 ng/mL	2 h	35809 µg/L/h	48574 µg/L/h	7.5 h	1.98 min	7.8 h	CNc1ncc(C#Cc2cc(C(=O)Nc3cc(-n4cnc(C)c4)cc(C(F)(F)F)c3)ccc2C)cn1	3 nM
